The nature of assay [1]: Metrazole Induced Convulsion Inhibition Assay. The class given is in vivo, Cox standard strain albino male mice. The note with it: Mus musculus; oral gavage, 1 h before metrazole 110 mg./kg. i.p.; active = total score of 6 or less (3 mice, range 0-12); read-out: Minimum active oral dose, Metrazole. The protocol: (§1) In this assay, a compound to be tested was suspended in acacia (5%) and administered by gavage to each of three Cox standard strain albino male mice (18-24 grams) at the dose level being investigated. One hour after the oral administration, a water solution of metrazole (pentylenetetrazole) was administered by the intraperitoneal route to each mouse at a dose of 110 mg./kg. […] A score of 0 was assigned to a mouse not showing any signs of convulsant activity; a score of 1 was given to mice developing clonic convulsions; a score of 2 was given to mice showing flexor tonic convulsions; a score of 3 was given to mice showing extensor tonic convulsions; and a score of 4 was given to mice that died within the one hour. The scores of the three mice were totalled for each compound and dose level. The scores can range from 0 to 12; a score of 6 or less was interpreted as indicative of an active compound at that dose level. Values reported in Table 2 below are the minimum oral dose levels (mg./kg.) where activity as defined above was observed.

The next assay has as its target GABA receptor. Kind of assay: In vitro activation of GABA binding ([3H]GABA, Triton X-100 treated membrane protein). The conditions noted are these: average of one or more tests, read-out: SC50 GABA (nanomolar concentration producing a 50% increase in binding). As for the experimental part:
(§2) The novel compounds of this invention were examined for their in vitro ability to activate GABA and benzodiazepine (BZ) binding. To measure the effect of a compound on GABA binding, Triton X-100 (octylphenoxy polyethoxyethanol, Rohm and Haas Co.) treated membrane protein was incubated in the presence of the compound and [^3 H]GABA as detailed by Horng and Wong, J. Neurochemistry, 32 (5), 1379 (1979). To examine BZ binding, H-flunirazepam and the compounds were incubated with native membrane protein as reported by Wong, et al, Brain Res. Bull., 5 (Suppl. 2), 853 (1980). The results in Table 1 are the nanomolar concentrations of compounds (by Example No.) which produced a 50 percent increase (SC50) in GABA or BZ binding. Each result is the average of one or more tests.

A further assay concerns the target benzodiazepine receptor. Kind of assay: In vitro activation of benzodiazepine (BZ) binding (flunirazepam, native membrane protein). The conditions noted are these: average of one or more tests, read-out: SC50 BZ (nanomolar concentration producing a 50% increase in binding). As for the experimental part:
as §2

A short description of assay [2]: Appetite Suppression Assay. The format is in vivo, Cox standard strain albino male mice. The conditions noted are these: Mus musculus; oral gavage 30 min before feeding; active = weight gain of less than 10% of weight lost on fasting; read-out: Minimum active oral dose, Appetite Suppression. As for the experimental part:
In this test, groups of three Cox standard strain albino male mice were weighed (18-24 grams) and then fasted overnight (16-18 hours). The mice were reweighed and then given the test compound in a suspension of acacia (5%) by gavage. Thirty minutes after oral administration, the mice were allowed to eat freely for one hour. After the eating period, the mice were weighed once more. The percent of weight gained (from the time the mice were given the test compound to after the feeding period) compared to weight lost during the fast period was calculated. The non-drug treated control animals gained back 35-55% of the weight lost on fasting. Any compound at the dose level tested which produced a weight gain of less than 10% was considered to be active. The results in Table 2 report the lowest dose level in which there was activity for each compound tested. Dextroamphetamine sulfate is active in this system at about 2.5 mg./kg.

Assay [3] can be described thus: Electroshock Induced Convulsion Inhibition Assay. The class given is in vivo, Cox standard strain albino male mice. The conditions noted are these: Mus musculus; oral; 0.1 second, 50 milliampere corneal electroshock; active = total score of 6 or less; read-out: Minimum active oral dose, Electro-Shock. As for the experimental part:
as §1
The drug administration and test conditions used in this assay were similar to those used in the metrazole induced convulsion inhibition assay above except that a 0.1 second, 50 milliampere electroshock through corneal electrodes induced the convulsion instead of metrazole. The animals were examined and evaluated immediately after the electroshock and were scored as before. The results in Table 2 are expressed as the lowest dose of each compound tested which was active as previously defined. For comparison, 18 milliamperes was usually sufficient to produce extensor tonic convulsions in about half of the control animals; at 50 milliamperes, almost all control animals died. Diazepam was active at about 1 mg./kg.

A short description of assay [4]: Mouse Writhing Inhibition Assay. The format is in vivo, Cox standard strain albino male mice. The note with it: oral gavage 60 min before acetic acid 55 mg./kg. i.p., active = less than ten writhes, read-out: Minimum active oral dose, Mouse Writhing. As for the experimental part: Writhing, which is characterized by contraction of the abdominal musculature, extension of the hindlegs, and rotation of the trunk, was induced in Cox standard strain albino male mice. The mice, weighing 18-24 grams, were fasted overnight and given the test compound by gavage in an acacia suspension (5%) 60 minutes before writhing was induced by the intraperitoneal administration of 55 mg./kg. of acetic acid (0.55 percent). Each treatment group consisted of 3 mice. The total number of writhes for the treatment group was determined during a 5-minute observation starting 5 minutes after acetic acid administration.

`CC(=O)OC1CCN(c2cnc(-c3ccc(C)cc3)c(-c3ccc(C)cc3)n2)CC1` [Example 43, 1-[5,6-bis(4-methylphenyl)pyrazin-2-yl]-4-piperidinol, acetate (ester)]: the minimal effective dose in assay [1] was 25 mg/kg; in assay [2], 25 mg/kg; in assay [3] it was 100 mg/kg; in assay [4], 100 mg/kg. In addition, the EC50 was found to be 7 nM on GABA receptor and 10 nM at benzodiazepine receptor.
In the case of `CC(=O)OC1CCN(c2nnc(-c3ccccc3C)c(-c3ccccc3C)n2)CC1` [Example 14, 1-[5,6-bis(2-methylphenyl)-1,2,4-triazin-3-yl]-4-piperidinol, acetate (ester)], the minimal effective dose in assay [1] was 200 mg/kg; in assay [2], 200 mg/kg; in assay [3], greater than 200 mg/kg; in assay [4] it was greater than 200 mg/kg. The figures for the EC50 at GABA receptor and on benzodiazepine receptor were 60 nM and 1000 nM, respectively.
For `Cc1ccc(-c2nnc(N3CCC(OC(N)=O)CC3)nc2-c2ccc(C)cc2)cc1` [Example 29, 1-[5,6-bis(4-methylphenyl)-1,2,4-triazin-3-yl]-4-piperidinol, carbamate (ester)], the minimal effective dose was greater than 6.25 mg/kg in assay [1], 0.4 mg/kg in assay [2], greater than 6.25 mg/kg in assay [3] and 1.56 mg/kg in assay [4]. In addition, the EC50 at GABA receptor came to 56 nM; at benzodiazepine receptor, 15 nM.
Consider `Cc1ccc(-c2nnc(N3CCC(O)CC3)nc2-c2ccc(C)cc2)cc1` [Example 7, 1-[5,6-bis(4-methylphenyl)-1,2,4-triazin-3-yl]-4-piperidinol], for which the minimal effective dose in assay [1] was 3.1 mg/kg; in assay [2], 3.1 mg/kg; in assay [3], less than 25 mg/kg; in assay [4] it was 3.1 mg/kg. Also, the EC50 on GABA receptor came out at 900 nM; on benzodiazepine receptor it was 700 nM.
Turning to `Cc1ccc(-c2nnc(N3CCCCCC3)nc2-c2ccc(C)cc2)cc1` [Example 21, 1-[5,6-bis(4-methylphenyl)-1,2,4-triazin-3-yl]-hexahydro-1H-azepine], the minimal effective dose in assay [1], in assay [2], in assay [3] and in assay [4] was greater than 200 mg/kg in each case. Besides, the EC50 stood at 2000 nM on GABA receptor and 600 nM at benzodiazepine receptor.
Take `CCOC(=O)C1CCN(c2nnc(-c3ccc(C)cc3)c(-c3ccc(C)cc3)n2)CC1` [Example 35, 1-[5,6-bis(4-methylphenyl)-1,2,4-triazin-3-yl]-4-piperidinecarboxylic acid, ethyl ester]: the minimal effective dose in assay [1], in assay [2], in assay [3] and in assay [4] was greater than 200 mg/kg in each case. Also, the EC50 on GABA receptor turned out to be 12 nM; on benzodiazepine receptor it was 18 nM.
Regarding `Cc1ccc(-c2nnc(N3CCC(OC(=O)Oc4ccccc4)CC3)nc2-c2ccc(C)cc2)cc1` [Example 28, carbonic acid, 1-[5,6-bis(4-methylphenyl)-1,2,4-triazin-3-yl]-4-piperidinyl phenyl ester], the minimal effective dose in assay [1], in assay [2], in assay [3] and in assay [4] was greater than 200 mg/kg in each case. Also, the figures for the EC50 on GABA receptor and on benzodiazepine receptor were 160 nM and 650 nM, respectively.
Consider `Cc1ccc(-c2nnc(N3CCC(OS(C)(=O)=O)CC3)nc2-c2ccc(C)cc2)cc1` [Example 32, 1-[5,6-bis(4-methylphenyl)-1,2,4-triazin-3-yl]-4-piperidinol, methane sulfonate (ester)], for which the minimal effective dose in assay [1] was greater than 6.25 mg/kg; in assay [2], 0.4 mg/kg; in assay [3], greater than 6.25 mg/kg; in assay [4], 0.4 mg/kg. Besides, the EC50 came out at 68 nM at GABA receptor and 6 nM on benzodiazepine receptor.
`Cc1ccc(-c2nnc(N3CCC4(CC3)OCCO4)nc2-c2ccc(C)cc2)cc1` [Example 38, 8-[5,6-bis(4-methylphenyl)-1,2,4-triazin-3-yl]-1,4-dioxa-8-azaspiro(4.5)decane]: the minimal effective dose in assay [1], in assay [2], in assay [3] and in assay [4] was greater than 200 mg/kg each time. Also, the figures for the EC50 at GABA receptor and on benzodiazepine receptor were greater than 10000 nM and 8000 nM, respectively.

These data come from patent US4585861A, “1,2,4-triazine derivatives” (Eli Lilly and Company, priority 1985, dated 1986).
